Assay: LUNAR study safety: adverse events per CTCAE version 4.03, safety population
Type: in vivo, human
Settings: for Anxiety / Confusional state / Mental status changes: psychiatric disorders; for Acute kidney injury / Urinary retention: renal and urinary disorders; for Acute respiratory failure / Atelectasis / Bronchial obstruction / Bronchopleural fistula / Chronic obstructive pulmonary disease / Cough / Dyspnoea / Esophago-bronchial fistula / Hemoptysis / Hypoxia / Interstitial lung disease / Pleural effusion / Pneumonia aspiration / Pneumonitis / Pulmonary embolism / Pulmonary hemorrhage / Respiratory failure: thoracic, and mediastinal disorders, respiratory; for Alopecia / Dermatitis exfoliative / Pruritus / Rash / Rash erythematous / Rash maculopapular / Skin erosion / Skin reaction / Skin toxicity: skin and subcutaneous tissue disorders; for Deep vein thrombosis / Embolism / Hypertension / Jugular vein thrombosis / Peripheral arterial occlusive disease / Vena cava embolism: vascular disorders
[1] = Grade 4, nervous system disorders
[2] = Grade 5, nervous system disorders

Description: Safety and treatment data were compiled from all patients who received any study therapy and were analyzed according to the actual treatment received. Analyses were performed using SAS software, version 9.4 (SAS Institute).

## CC(=O)O[C@@]12CO[C@@H]1C[C@H](O)[C@@]1(C)C(=O)[C@H](O)C3=C(C)[C@@H](OC(=O)[C@H](O)[C@@H](NC(=O)OC(C)(C)C)c4ccccc4)C[C@@](O)([C@@H](OC(=O)c4ccccc4)[C@H]21)C3(C)C [Docetaxel, docetaxel]
Grade 4
  Metastases to bone: 0 no. (%)
  Metastases to central nervous system: 0 no. (%)
  Metastases to meninges: 0 no. (%)
  Metastases to skin: 0 no. (%)
  Mouth ulceration: 0 no. (%)
  Mucosal inflammation: 0 no. (%)
  Multiple organ dysfunction syndrome: 0 no. (%)
  Muscular weakness: 0 no. (%)
  Myalgia: 0 no. (%)
  Myocardial infarction: 0 no. (%)
  Nausea: 0 no. (%)
  Neck pain: 0 no. (%)
  Neuropathy peripheral: 0 no. (%)
  Neutropenia: 10 (14.7) no. (%)
  Neutrophil count decreased: 4 (5.9) no. (%)
  Non-cardiac chest pain: 0 no. (%)
  Oedema peripheral: 0 no. (%)
  Oral candidiasis: 0 no. (%)
  Pancreatic failure: 0 no. (%)
  Pancreatitis: 0 no. (%)
  Pericardial effusion: 0 no. (%)
  Peripheral sensory: 0 no. (%)
  Platelet count decreased: 0 no. (%)
  Pneumonia: 0 no. (%)
  Pneumonia pseudomonal: 0 no. (%)
  Pneumonia staphylococcal: 0 no. (%)
  Pyelonephritis: 0 no. (%)
  Pyopneumothorax: 0 no. (%)
  Pyrexia: 0 no. (%)
  Refeeding syndrome: 0 no. (%)
  Respiratory tract infection: 0 no. (%)
  Right ventricular failure: 0 no. (%)
  Sepsis: 1 (1.5) no. (%)
  Septic shock: 0 no. (%)
  Skin infection: 0 no. (%)
  Stomatitis: 0 no. (%)
  Subileus: 0 no. (%)
  Thrombocytopenia: 1 (1.5) no. (%)
  Thyroiditis subacute: 0 no. (%)
  Tumor pain: 0 no. (%)
  Upper respiratory tract infection: 0 no. (%)
  Urinary tract infection: 0 no. (%)
  Urosepsis: 0 no. (%)
  Vomiting: 0 no. (%)
  Weight decreased: 0 no. (%)
  White blood cell count decreased: 2 (2.9) no. (%)
  Anxiety: 0 no. (%)
  Confusional state: 0 no. (%)
  Mental status changes: 1 (1.5) no. (%)
  Acute kidney injury: 0 no. (%)
  Urinary retention: 0 no. (%)
  Acute respiratory failure: 0 no. (%)
  Atelectasis: 0 no. (%)
  Bronchial obstruction: 2 (2.9) no. (%)
  Bronchopleural fistula: 0 no. (%)
  Chronic obstructive pulmonary disease: 0 no. (%)
  Cough: 0 no. (%)
  Dyspnoea: 1 (1.5) no. (%)
  Esophago-bronchial fistula: 0 no. (%)
  Hemoptysis: 0 no. (%)
  Hypoxia: 0 no. (%)
  Interstitial lung disease: 0 no. (%)
  Pleural effusion: 0 no. (%)
  Pneumonia aspiration: 0 no. (%)
  Pneumonitis: 0 no. (%)
  Pulmonary embolism: 0 no. (%)
  Pulmonary hemorrhage: 0 no. (%)
  Respiratory failure: 0 no. (%)
  Alopecia: 0 no. (%)
  Dermatitis exfoliative: 0 no. (%)
  Pruritus: 0 no. (%)
  Rash: 0 no. (%)
  Rash erythematous: 0 no. (%)
  Rash maculopapular: 0 no. (%)
  Skin erosion: 0 no. (%)
  Skin reaction: 0 no. (%)
  Skin toxicity: 0 no. (%)
  Deep vein thrombosis: 0 no. (%)
  Embolism: 0 no. (%)
  Hypertension: 0 no. (%)
  Jugular vein thrombosis: 1 (1.5) no. (%)
  Peripheral arterial occlusive disease: 0 no. (%)
  Vena cava embolism: 0 no. (%)
[1]
  Brain oedema: 1 (1.5) no. (%)
  Cauda equina syndrome: 0 no. (%)
  Dysarthria: 0 no. (%)
  Embolic stroke: 0 no. (%)
  Hemiparesis: 0 no. (%)
  Motor dysfunction: 0 no. (%)
  Nervous system disorder: 0 no. (%)
  Neurologic neglect syndrome: 0 no. (%)
  Neurotoxicity: 0 no. (%)
  Peripheral sensorimotor neuropathy: 0 no. (%)
  Quadriparesis: 0 no. (%)
  Seizure: 0 no. (%)
  Syncope: 0 no. (%)
  Vocal cord paralysis: 0 no. (%)
Grade 5
  Acute myocardial infarction: 0 no. (%)
  Alanine aminotransferase increased: 0 no. (%)
  Anemia: 0 no. (%)
  Anemia macrocytic: 0 no. (%)
  Any adverse event: 4 (5.9) no. (%)
  Arthralgia: 0 no. (%)
  Ascites: 0 no. (%)
  Aspergillus infection: 0 no. (%)
  Asthenia: 0 no. (%)
  Atrial tachycardia: 0 no. (%)
  Autoimmune colitis: 0 no. (%)
  Back pain: 0 no. (%)
  Blood bilirubin increased: 0 no. (%)
  Bone pain: 0 no. (%)
  Bronchiolitis: 0 no. (%)
  Bronchitis: 0 no. (%)
  C-reactive protein increased: 0 no. (%)
  COVID-19 pneumonia: 0 no. (%)
  Cancer pain: 0 no. (%)
  Cardiac failure congestive: 0 no. (%)
  Cardiac tamponade: 0 no. (%)
  Cardiac ventricular thrombosis: 0 no. (%)
  Cataract: 0 no. (%)
  Chest pain: 0 no. (%)
  Cholangitis: 0 no. (%)
  Cholecystitis: 0 no. (%)
  Cholelithiasis: 0 no. (%)
  Clostridium bacteremia: 0 no. (%)
  Coronary artery disease: 0 no. (%)
  Decreased appetite: 0 no. (%)
  Dehydration: 0 no. (%)
  Diarrhea: 0 no. (%)
  Diverticulitis: 0 no. (%)
  Drug hypersensitivity: 0 no. (%)
  Encephalitis: 0 no. (%)
  Esophagitis: 0 no. (%)
  Euthanasia: 1 (1.5) no. (%)
  Fatigue: 0 no. (%)
  Febrile neutropenia: 0 no. (%)
  Femoral neck fracture: 0 no. (%)
  Forced expiratory volume decreased: 0 no. (%)
  Gastroenteritis norovirus: 0 no. (%)
  Gastroenteritis salmonella: 0 no. (%)
  General physical health deterioration: 0 no. (%)
  Hematochezia: 0 no. (%)
  Hepatic enzyme increased: 0 no. (%)
  Hip fracture: 0 no. (%)
  Hypercalcemia: 0 no. (%)
  Hyperglycemia: 0 no. (%)
  Hyperkalaemia: 0 no. (%)
  Hypertriglyceridaemia: 0 no. (%)
  Hypoalbuminemia: 0 no. (%)
  Hypocalcaemia: 0 no. (%)
  Hypokalemia: 0 no. (%)
  Hyponatremia: 0 no. (%)
  Ileus: 0 no. (%)
  Infection: 0 no. (%)
  Intestinal dilatation: 0 no. (%)
  Intestinal hemorrhage: 0 no. (%)
  Intestinal perforation: 0 no. (%)
  Large intestine perforation: 0 no. (%)
  Leukopenia: 0 no. (%)
  Liver disorder: 0 no. (%)
  Localized oedema: 0 no. (%)
  Lung abscess: 0 no. (%)
  Lymphocyte count decreased: 0 no. (%)
  Lymphopenia: 0 no. (%)
  Malignant ascites: 0 no. (%)
  Malignant pleural effusion: 0 no. (%)
  Malnutrition: 0 no. (%)
  Metastases to bone: 0 no. (%)
  Metastases to central nervous system: 0 no. (%)
  Metastases to meninges: 0 no. (%)
  Mouth ulceration: 0 no. (%)
  Mucosal inflammation: 0 no. (%)
  Multiple organ dysfunction syndrome: 0 no. (%)
  Muscular weakness: 0 no. (%)
  Myalgia: 0 no. (%)
  Myocardial infarction: 0 no. (%)
  Nausea: 0 no. (%)
  Neck pain: 0 no. (%)
  Neutropenia: 0 no. (%)
  Neutrophil count decreased: 0 no. (%)
  Non-cardiac chest pain: 0 no. (%)
  Oedema peripheral: 0 no. (%)
  Oral candidiasis: 0 no. (%)
  Pancreatic failure: 0 no. (%)
  Pancreatitis: 0 no. (%)
  Pericardial effusion: 0 no. (%)
  Peripheral sensory: 0 no. (%)
  Platelet count decreased: 0 no. (%)
  Pneumonia: 0 no. (%)
  Pneumonia pseudomonal: 0 no. (%)
  Pneumonia staphylococcal: 0 no. (%)
  Pyelonephritis: 0 no. (%)
  Pyopneumothorax: 0 no. (%)
  Pyrexia: 0 no. (%)
  Refeeding syndrome: 0 no. (%)
  Respiratory tract infection: 0 no. (%)
  Right ventricular failure: 0 no. (%)
  Sepsis: 0 no. (%)
  Septic shock: 0 no. (%)
  Skin infection: 0 no. (%)
  Stomatitis: 0 no. (%)
  Subileus: 0 no. (%)
  Thrombocytopenia: 0 no. (%)
  Thyroiditis subacute: 0 no. (%)
  Tumor pain: 0 no. (%)
  Upper respiratory tract infection: 0 no. (%)
  Urinary tract infection: 0 no. (%)
  Urosepsis: 0 no. (%)
  Vomiting: 0 no. (%)
  Weight decreased: 0 no. (%)
  White blood cell count decreased: 0 no. (%)
  Anxiety: 0 no. (%)
  Confusional state: 0 no. (%)
  Mental status changes: 0 no. (%)
  Acute kidney injury: 0 no. (%)
  Urinary retention: 0 no. (%)
  Acute respiratory failure: 2 (2.9) no. (%)
  Atelectasis: 0 no. (%)
  Bronchial obstruction: 0 no. (%)
  Bronchopleural fistula: 0 no. (%)
  Chronic obstructive pulmonary disease: 0 no. (%)
  Cough: 0 no. (%)
  Dyspnoea: 0 no. (%)
  Esophago-bronchial fistula: 0 no. (%)
  Hemoptysis: 0 no. (%)
  Hypoxia: 0 no. (%)
  Interstitial lung disease: 0 no. (%)
  Pleural effusion: 0 no. (%)
  Pneumonia aspiration: 0 no. (%)
  Pneumonitis: 0 no. (%)
  Pulmonary embolism: 0 no. (%)
  Pulmonary hemorrhage: 0 no. (%)
  Respiratory failure: 1 (1.5) no. (%)
  Alopecia: 0 no. (%)
  Dermatitis exfoliative: 0 no. (%)
  Pruritus: 0 no. (%)
  Rash: 0 no. (%)
  Rash erythematous: 0 no. (%)
  Rash maculopapular: 0 no. (%)
  Skin erosion: 0 no. (%)
  Skin reaction: 0 no. (%)
  Skin toxicity: 0 no. (%)
  Deep vein thrombosis: 0 no. (%)
  Embolism: 0 no. (%)
  Hypertension: 0 no. (%)
  Jugular vein thrombosis: 0 no. (%)
  Peripheral arterial occlusive disease: 0 no. (%)
  Vena cava embolism: 0 no. (%)
[2]
  Brain oedema: 0 no. (%)
  Cauda equina syndrome: 0 no. (%)
  Dysarthria: 0 no. (%)
  Hemiparesis: 0 no. (%)
  Motor dysfunction: 0 no. (%)
  Nervous system disorder: 0 no. (%)
  Neurologic neglect syndrome: 0 no. (%)
  Peripheral sensorimotor neuropathy: 0 no. (%)
  Quadriparesis: 0 no. (%)
  Seizure: 0 no. (%)
  Syncope: 0 no. (%)
  Vocal cord paralysis: 0 no. (%)
Grade ≥3
  Anemia: 8 (11.8) no. (%)
  Any adverse event: 43 (63.2) no. (%)
  Neutropenia: 11 (16.2) no. (%)
human, in vivo
  COVID-19 pneumonia: 0 no. (%)
  Herpes zoster: 0 no. (%)
human, in vivo, 75 mg/m2
  Adverse event leading to death: 4 (5.9) no. (%)
In vivo
  Adverse event leading to discontinuation: 1 (1.5) no. (%)
  Serious adverse event: 28 (41.2) no. (%)
  patients who discontinued therapy due to intolerable toxicity: four
